Where “and” joins values, the source holds several entries; their conditions need not be identical. Equal values may be shown once.
System: HepG2 viability, ATP luminescence (CellTiter-Glo), 72 h
Assay: HepG2 hepatoma cell cytotoxicity, dose response, cytotoxicity control, CellTiter-Glo luminescence, cherry-pick, set 3 (AID 720589)

Row | Compound | AC35
1 | COc1ccc(Cn2cc3c(-c4ccc(F)cc4)nnc-3c3cc(OC)c(OC)cc32)cc1 | 10.6 µM
2 | OCC1OC(n2ccc3c2ncn2ncnc32)C(O)C1O (stereo not drawn) | 0.339 µM
3 | Cc1ccc(C(=O)O/N=C(\N)c2ccccn2)cc1 | 13.2 µM
4 | C=C1C(=O)OC2C1CCC(C)C1C=CC(=O)C12C (stereo not drawn) | 9.29 µM
5 | Cc1ccc(C)c(S(=O)(=O)N2CCN(c3ncnc4sccc34)CC2)c1 | 4.76 µM
6 | Cc1[nH][nH]c(=O)c1C(c1c(C)[nH][nH]c1=O)c1cn(Cc2ccc(Cl)c(Cl)c2)c2ccccc12 | 13.5 µM
7 | O=c1c2ccccc2nc(/C=C/c2cc(Br)ccc2O)n1CCCO | 6.52 µM
8 | C[C@@H]1CN([C@@H](C)CO)C(=O)c2cccc(NS(=O)(=O)c3ccccc3)c2O[C@@H]1CN(C)Cc1ccc(C(=O)Nc2ccccc2N)cc1 | 2.11 µM
9 | CC(C)=CCC/C(C)=C/CN1C(=O)N(c2ccc(F)cc2)[C@H]2C[C@@H](c3ccccc3)[C@@H](C)[C@@H](C(=O)N3CCOCC3)C[C@H]21 | 3.74 µM
10 | Cc1ccc(S(=O)(=O)Nc2ccc3c(c2)C(=O)N([C@H](C)CO)C[C@@H](C)[C@@H](CN(C)Cc2ccc(C(=O)Nc4ccccc4N)cc2)O3)cc1 | 1.28 µM
11 | C[C@H]1CN([C@@H](C)CO)C(=O)Cc2cc(NC(=O)CCC(F)(F)F)ccc2O[C@H]1CN(C)Cc1ccc(C(=O)Nc2ccccc2N)cc1 | 2.13 µM
12 | Cc1ccc(/C=C2\SC(=S)N(CCCC(=O)NNC(=O)c3ccccc3O)C2=O)cc1 | 16.9 µM
13 | COc1ccc(/C=C/C(=O)c2ccc(C(=O)/C=C/c3ccc(OC)c(OC)c3)cc2)cc1OC | 15.1 µM
14 | N#C[C@H]1[C@H](c2ccc(C#Cc3ccccc3F)cc2)[C@@H](CO)N1C(=O)C1CCCCC1 | 12.9 µM
15 | CN(C)c1ccc(C=c2c3ccccc3n3c2c2c([n+]3C)CCCC2)cc1 | 2.14 µM
16 | COC(=O)C1=C(C)N(Cc2ccccc2C(F)(F)F)C(=NCc2ccc(OC)cc2)NC1c1ccc(C(F)(F)F)cc1 (stereo not drawn) | 11.1 µM
17 | OC[C@H]1[C@@H](c2ccc(C#CC3CCCC3)cc2)[C@@H]2CN(CCC(F)(F)F)CCCCN12 | 9.23 µM
18 | C[C@@H]1CCCCO[C@H](CN(C)Cc2ccc(C(=O)Nc3ccccc3N)cc2)[C@@H](C)CN([C@@H](C)CO)C(=O)c2cc(NS(=O)(=O)c3ccc(Cl)cc3)ccc2O1 | 8.5 µM
19 | C=C1C(=O)OC2C1CCC(C)C1(O)C=CC(=O)C21C (stereo not drawn) | 16.4 µM
20 | CN1C2CCC1/C(=C/c1ccccn1)C(=O)/C2=C\c1ccccn1 | 1.27 µM
21 | CC(=O)OC1CC(OC2C(O)CC(OC3C(O)CC(OC4CCC5(C)C(CCC6C5CCC5(C)C(C7=CC(=O)OC7)C(O)CC65O)C4)OC3C)OC2C)OC(C)C1OC1OC(CO)C(O)C(O)C1O (stereo not drawn) | 0.475 µM

Row | Compound | AC35
22 | C[C@H](CO)N1C[C@H](C)[C@H](CN(C)Cc2ccc(C(=O)Nc3ccccc3N)cc2)Oc2c(cccc2N(C)C)C1=O | 0.615 µM
23 | CC(C)N1C/C(=C/c2ccsc2)C(=O)/C(=C/c2ccsc2)C1 | 11.7 µM
24 | Cc1cc(-c2nc3cc(F)ccc3s2)ccc1N | 0.0938 µM
25 | CC(C)(C)[S@](=O)N1Cc2cc(C(=O)NCC(F)(F)F)nc(-c3cccc(-c4cccc(F)c4)c3)c2[C@@H]1CCO | 0.139 µM
26 | C[C@H](CO)N1C[C@H](C)[C@H](CN(C)CC2CCCCC2)Oc2ccc(NC(=O)Nc3cccc4ccccc34)cc2C1=O | 14.9 µM
27 | O=C(N/N=C/c1cnc(N2CCCCC2)s1)c1ccc(C(F)(F)F)cc1 | 14.1 µM
28 | Cc1ccc(S(=O)(=O)Nc2ccc3c(c2)C(=O)N([C@H](C)CO)C[C@H](C)[C@@H](CN(C)Cc2ccc(C(F)(F)F)cc2)OCCCC[C@H](C)O3)cc1 | 10 µM
29 | O=C(NC(c1ccc(F)cc1)c1ccc2ccccc2n1)C1CCN(Cc2cccc(C(F)(F)F)c2)CC1 (stereo not drawn) | 20 µM
30 | NC(Cc1ccc(C(F)(F)F)cc1)c1csc(NC(=O)Nc2ccccc2Cc2ccccc2)n1 (stereo not drawn) | 12.4 µM
31 | CCCCNC1=CC(=O)C(=O)c2ccccc21 | 7.32 µM
32 | CC1(C)N=C(N)N=C(N)N1c1ccc(CCCCc2ccccc2)cc1 | 2.08 µM
33 | CN(C)c1ccc(/C=N/Nc2nc3ccccc3o2)cc1 | 18.2 µM
34 | O=C(C1CC1)N1C[C@@H]2N[C@H](C1)C2c1ccc(/C=C/c2ccccc2)cc1 (stereo partly drawn) | 10.7 µM
35 | C[C@@H]1CN([C@@H](C)CO)C(=O)c2cccc(N(C)C)c2O[C@@H]1CN(C)Cc1ccc(C(=O)Nc2ccccc2N)cc1 | 4.26 µM
36 | C[C@@H]1O[C@@H](O[C@H]2C[C@@H](O)[C@]3(CO)[C@@H]4C(CC[C@]3(O)C2)[C@@]2(O)CC[C@H](C3COC(=O)C3)[C@@]2(C)C[C@H]4O)[C@H](O)[C@H](O)[C@H]1O (stereo partly drawn) | 1.47 µM
37 | CC1(C(=O)NCc2ccco2)Cc2c(-c3cccc(C(N)=O)c3)ccnc2O1 (stereo not drawn) | 14.5 µM
38 | O=C(O)c1ccc(N/N=C/c2ccc3c(c2)OCO3)cc1 | 5.97 µM
39 | Cc1ccc(S(=O)(=O)Nc2ccc3c(c2)C(=O)N([C@@H](C)CO)C[C@@H](C)[C@H](CN(C)Cc2ccc(C(F)(F)F)cc2)OCCCC[C@H](C)O3)cc1 | 13.3 µM
40 | C[C@@H]1CN([C@@H](C)CO)C(=O)Cc2cc(N(C)C)ccc2O[C@H]1CN(C)Cc1ccc(C(=O)Nc2ccccc2N)cc1 | 2.38 µM
41 | CCN1C/C(=C/c2ccc(N3CCOCC3)cc2)C(=O)/C(=C/c2ccc(N3CCOCC3)cc2)C1 | 10.5 µM
42 | COc1ccc([Si](C)(C)[C@H]2[C@H](CCO)O[C@@]3(C(=O)N(c4ccccc4)c4ccccc43)[C@@H]2C)cc1 | 10.5 µM

Row | Compound | AC35
43 | CCOc1ccc2nc(NC3=NC(c4ccc(OC)cc4)CC(=O)N3)nc(C)c2c1 (stereo not drawn) | 10.2 µM
44 | Cc1ccc(C(C)C)c(OCc2ccc(C(=O)N/N=C/c3ccc(O)cc3O)cc2)c1 | 4.24 µM
45 | C[C@@H]1CN([C@@H](C)CO)C(=O)c2cc(NS(=O)(=O)c3ccc(Cl)cc3)ccc2O[C@@H]1CN(C)Cc1ccc(C(=O)Nc2ccccc2N)cc1 | 9.68 µM
46 | N#CC(C#N)=C1C=CC=CN1/C(=C\c1ccco1)C(=O)c1ccc(Cl)cc1 | 11.2 µM
47 | Cc1cc(-c2nc3ccccc3s2)ccc1N | 0.0502 µM
48 | C(=NNc1ccc2ccccc2n1)c1ccccn1 | 1.64 µM
49 | C[C@H](CO)N1C[C@H](C)[C@@H](CN(C)Cc2ccc(Oc3ccccc3)cc2)Oc2ccc(NS(=O)(=O)c3ccc(Cl)cc3)cc2CC1=O | 10.3 µM
50 | CN=c1scc(-c2cccs2)n1/N=C/c1ccccc1O | 20.8 µM
51 | CC[C@@H]1C[C@H]2CC[C@H](O2)[C@H](C)C(=O)O[C@@H](C)C[C@@H]2CC[C@@H](O2)[C@@H](C)C(=O)O[C@H](C)C[C@H]2CC[C@H](O2)[C@H](C)C(=O)O[C@@H](C)C[C@@H]2CC[C@@H](O2)[C@@H](C)C(=O)O1 | 0.506 µM
52 | C[C@@H]1CCCCO[C@H](CN(C)Cc2ccc(C(=O)Nc3ccccc3N)cc2)[C@@H](C)CN([C@H](C)CO)C(=O)c2cc(NS(=O)(=O)c3ccc(Cl)cc3)ccc2O1 | 9.81 µM
53 | O=c1ccc2ccccc2c2ccccc12 | 15.5 µM
54 | COC(=O)C[C@@H]1CC[C@H]2[C@H](COc3ccc(NC(=O)Nc4ccc(C#N)cc4)cc3C(=O)N2C)O1 | 4.2 µM
55 | CO[C@H]1CN(C)C(=O)c2ccc(NC(=O)c3ccc(-c4ccccc4)cc3)cc2OC[C@H](C)NC[C@H]1C | 6.36 µM
56 | C[C@H]1CCCCO[C@H](CN(C)Cc2ccc(C(F)(F)F)cc2)[C@@H](C)CN([C@@H](C)CO)C(=O)c2cc(NC(=O)Nc3ccccc3)ccc2O1 | 22.4 µM
57 | COc1ccc(Nc2ncnc3ccc(Br)cc23)c(OC)c1 | 15.6 µM
58 | CC1(C)N=C(N)N=C(N)N1c1ccc(OCCCOc2ccccc2)c(Cl)c1 | 9.77 µM
59 | COc1ccc(C(CCNCc2ccc(OC(C)C)cc2)C(C)C)cc1 (stereo not drawn) | 9.44 µM
60 | COc1cccc(O)c1CN1CCC(C(=O)Nc2ccc(-c3cccc(C)c3)cc2)CC1 | 10.4 µM
61 | CN(C[C@H]1N[C@@H](CO)[C@@H]1c1ccc(C2=CCCC2)cc1)C(=O)c1cccc(F)c1 | 2.88 µM
62 | C[C@@H]1O[C@@H](O[C@H]2C[C@@H](O)[C@]3(CO)[C@H]4[C@H](O)C[C@]5(C)[C@@H](C6COC(=O)C6)CC[C@]5(O)[C@@H]4CC[C@]3(O)C2)[C@H](O)[C@H](O)[C@H]1O (stereo partly drawn) | 2.62 µM
63 | CC1OC(OC2CC(O)C3(CO)C4C(O)CC5(C)C(C6=CC(=O)OC6)CCC5(O)C4CCC3(O)C2)C(O)C(O)C1O (stereo not drawn) | 0.129 µM

Row | Compound | AC35
64 | Cc1cc(C)c2sc(NNC(=O)c3ccc(S(=O)(=O)N4CCc5ccccc5C4)cc3)nc2c1 | 3.76 µM
65 | CCc1nc(N)nc(N)c1-c1ccc(Cl)c(N=[N+]=[N-])c1 | 5 µM
66 | CN(C[C@H]1N[C@@H](CO)[C@@H]1c1ccc(C2=CCCC2)cc1)C(=O)c1ccc(F)cc1 | 4.57 µM
67 | CN(C)c1ncnc2c1ccn2C1OC(CO)C(O)C1O (stereo not drawn) | 0.178 µM
68 | C[C@@H]1CN([C@H](C)CO)S(=O)(=O)c2ccc(C#CC(C)(C)O)cc2O[C@H]1CN(C)Cc1ccc(-c2ccccc2)cc1 | 6.19 µM
69 | COc1ccccc1-c1ccc(OCCCN2CCC(C(O)(c3ccccc3)c3ccccc3)CC2)cc1 | 7.47 µM
70 | CCOC(=O)[C@]12Cc3ccc(C)cc3[C@H]1N(C1CCCCC1)C(=O)c1ccccc12 | 3.95 µM
71 | O=C(c1nnsc1S(=O)c1ccc(Cl)cc1)N1CCOCC1 (stereo not drawn) | 7.87 µM
72 | CCCN1C/C(=C/c2ccc3c(c2)OCO3)C(=O)/C(=C/c2ccc3c(c2)OCO3)C1 | 12.5 µM
73 | Cc1ccc(OCCNC(=O)c2cccc(S(=O)(=O)NCc3ccccc3)c2)cc1 | 19.3 µM
74 | C[C@H](O)C#Cc1ccc2c(c1)O[C@@H](CN(C)Cc1ccc(-c3ccccc3)cc1)[C@H](C)CN([C@@H](C)CO)S2(=O)=O | 3.54 µM and 6.95 µM
75 | C[C@@H]1CCCCO[C@H](CN(C)Cc2ccc(C(F)(F)F)cc2)[C@H](C)CN([C@H](C)CO)C(=O)c2cc(NC(=O)CCCN(C)C)ccc2O1 | 9.15 µM
76 | COc1ccc(S(=O)(=O)Nc2ccc3c(c2)C(=O)N([C@H](C)CO)C[C@@H](C)[C@@H](CN(C)Cc2ccc(C(=O)Nc4ccccc4N)cc2)O3)cc1 | 10.8 µM
77 | COC1C(O)C(C)OC(OC2CCC3(C)C(CCC4C3C(O)CC3(C)C(C5=CC(=O)OC5)CCC43O)C2)C1O (stereo not drawn) | 0.204 µM
78 | C[C@H]1CN([C@@H](C)CO)S(=O)(=O)c2ccc(C#CC(C)(C)O)cc2O[C@@H]1CN(C)Cc1ccc(-c2ccccc2)cc1 | 0.689 µM
79 | Cc1cccc(CN2C(=O)/C(=C\c3ccc(C(=O)NCCCN4CCN(C)CC4)cc3)Oc3ccccc32)c1 | 11.2 µM
80 | OC[C@H]1O[C@@H](n2cnc3c(NCc4ccco4)ncnc32)[C@H](O)[C@@H]1O | 12.1 µM
81 | CN(C)c1ccc(N=Nc2nc3ccccc3n2C)cc1 | 12 µM
82 | NC1=CC(=O)C(=O)c2cccnc21 | 13.7 µM
83 | C[C@@H]1CN([C@H](C)CO)C(=O)c2cc(C#CCN(C)C)cnc2O[C@H]1CN(C)Cc1ccc(-c2ccccc2)cc1 | 2.79 µM

Reference: PubChem BioAssay AID720589 (Broad Institute, 2013)
